Assay results from ChEMBL document CHEMBL1132116, “Abasic site recognition in DNA as a new strategy to potentiate the action of anticancer alkylating drugs?” (1999).

What was measured:
Mus musculus [1] = organism: Mus musculus; test: Rate of survival of treated Mice to survival of controls * 100; type: functional
Mus musculus [2] = test: Number of surviving Mice after 60 days of administration of the compound; Survivals= 0/6; type: functional
Mus musculus [3] = test: Number of surviving Mice in the presence (N,N''-bis(2-chloroethyl)-N-nitrosourea) of BCNU after 60 days of administration of the compound; Survivals= 6/6; type: functional
P388 = test: Inhibitory activity against P388 murine leukemia at 2 mg/kg concentration; type: functional, Mus musculus

COc1ccc2nc3cc(Cl)ccc3c(NCCCN(CCCN(CCn3cnc4c(N)ncnc43)C(=N)N)C(=N)N)c2c1
T/C (Mus musculus [1]): 109 | Survival (Mus musculus [2]): 0 | Survival (Mus musculus [3]): 6 | Survival (P388): 16.2 days
